Results taken from paper PMC6997118, “Long-acting CCK analogue NN9056 lowers food intake and body weight in obese Göttingen Minipigs” (International Journal of Obesity (2005), 2019).

How the values were obtained:
[1] = biological target: T1, porcine CCK-1 receptor (Sus scrofa, UniProt I3LFK5); experiment: biochemical; settings: pig CCK-1 receptor over-expressed in COS-7 cells, SPA, n = 3; read-out: Binding Mean IC50
T1 construct: expressed in transfected cells; host or cells: COS-7
T1 sequence (I3LFK5 1-428): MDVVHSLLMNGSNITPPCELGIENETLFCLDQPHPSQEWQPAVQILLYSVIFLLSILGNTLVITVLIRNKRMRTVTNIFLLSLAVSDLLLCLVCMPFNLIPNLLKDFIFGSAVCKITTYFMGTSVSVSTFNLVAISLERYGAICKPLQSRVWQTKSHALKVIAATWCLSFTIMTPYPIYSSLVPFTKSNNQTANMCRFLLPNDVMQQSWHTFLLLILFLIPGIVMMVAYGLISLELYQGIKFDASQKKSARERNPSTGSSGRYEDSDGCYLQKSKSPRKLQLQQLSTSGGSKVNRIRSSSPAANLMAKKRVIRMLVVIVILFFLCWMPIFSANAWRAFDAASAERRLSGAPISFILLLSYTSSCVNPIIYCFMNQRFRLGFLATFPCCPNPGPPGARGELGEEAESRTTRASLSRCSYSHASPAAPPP

[2] = biological target: T1, porcine CCK-1 receptor; experiment: cell-based; settings: pig CCK-1 receptor in COS-7 cells, IP-One, n = 3; read-out: Activation Mean EC50
[3] = biological target: T2, porcine CCK-2 receptor (Sus scrofa, UniProt A0A287A2K5); experiment: cell-based; settings: pig CCK-2 receptor in COS-7 cells, IP-One, n = 3; highest dose tested 100 nM; read-out: Activation Mean EC50
T2 construct: expressed in transfected cells; host or cells: COS-7
T2 sequence (A0A287A2K5 whole entry): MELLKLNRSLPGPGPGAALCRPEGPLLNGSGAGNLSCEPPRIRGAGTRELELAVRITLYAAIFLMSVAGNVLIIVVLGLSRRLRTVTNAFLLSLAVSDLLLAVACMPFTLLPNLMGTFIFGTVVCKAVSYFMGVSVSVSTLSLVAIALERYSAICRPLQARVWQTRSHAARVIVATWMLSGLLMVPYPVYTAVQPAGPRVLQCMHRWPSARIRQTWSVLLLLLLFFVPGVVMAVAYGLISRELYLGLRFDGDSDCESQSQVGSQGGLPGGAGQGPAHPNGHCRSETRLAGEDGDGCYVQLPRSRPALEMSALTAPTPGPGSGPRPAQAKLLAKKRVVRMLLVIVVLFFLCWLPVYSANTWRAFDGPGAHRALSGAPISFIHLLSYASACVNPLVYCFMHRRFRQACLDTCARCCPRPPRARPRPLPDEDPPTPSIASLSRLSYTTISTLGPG

[4] = obese humans, after 24 weeks of treatment; cited from earlier work
[5] = design: method as in PMID 7084608; settings: cited from earlier work

## CSCC[C@H](NC(=O)[C@H](Cc1ccc(OS(=O)(=O)O)cc1)NC(=O)[C@@H](N)CC(=O)O)C(=O)NCC(=O)N[C@@H](Cc1c[nH]c2ccccc12)C(=O)N[C@@H](CCSC)C(=O)N[C@@H](CC(=O)O)C(=O)N[C@@H](Cc1ccccc1)C(N)=O [CCK-8]
[1]
  IC50: 0.199 nM
[2]
  EC50: 0.221 nM
[3]
  EC50: 0.325 nM

## CC(C)N(C(=O)CN1C(=O)[C@H](NC(=O)Nc2cccc(C(=O)O)c2)C(=O)N(c2ccccc2)c2ccccc21)c1ccccc1 [GI181771X]
[4]
  Weight loss: failed to induce weight loss

## Cholecystokinin [CCK]
[5]
  Circulating half-life: < 5 min
